Assay results published in publication PMC12067315 (European journal of medicinal chemistry, 2022).
Where two headings read alike, the source gives them in different places.

Columns and labels:
[1] = biological target: T1, α2C-AR (Homo sapiens, UniProt P18825); assay type: binding; conditions: for Subtype Selectivity (α2A/α2C): ratio between Ki for α2A vs. α2C
T1 sequence (P18825 1-462): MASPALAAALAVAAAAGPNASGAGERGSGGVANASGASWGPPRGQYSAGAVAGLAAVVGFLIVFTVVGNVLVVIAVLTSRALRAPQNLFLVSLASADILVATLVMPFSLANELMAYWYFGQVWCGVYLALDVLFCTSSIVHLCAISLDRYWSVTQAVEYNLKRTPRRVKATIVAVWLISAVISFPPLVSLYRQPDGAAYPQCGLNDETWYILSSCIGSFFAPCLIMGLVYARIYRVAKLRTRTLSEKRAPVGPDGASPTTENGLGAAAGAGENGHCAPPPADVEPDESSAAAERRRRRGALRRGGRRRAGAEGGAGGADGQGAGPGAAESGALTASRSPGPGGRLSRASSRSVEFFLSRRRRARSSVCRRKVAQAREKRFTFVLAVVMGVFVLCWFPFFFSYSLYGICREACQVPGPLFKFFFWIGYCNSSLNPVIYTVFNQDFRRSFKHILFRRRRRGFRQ

[2] = tested on: α2A; conditions: read-out: α2A (nM), literature Kb; literature Kb values; cited from earlier work
[3] = tested on: α2C; conditions: read-out: α2C (nM), literature Kb; literature Kb values; cited from earlier work
[4] = biological target: T2, α2A-AR (Homo sapiens, UniProt P08913); assay type: binding
T2 sequence (P08913 1-465): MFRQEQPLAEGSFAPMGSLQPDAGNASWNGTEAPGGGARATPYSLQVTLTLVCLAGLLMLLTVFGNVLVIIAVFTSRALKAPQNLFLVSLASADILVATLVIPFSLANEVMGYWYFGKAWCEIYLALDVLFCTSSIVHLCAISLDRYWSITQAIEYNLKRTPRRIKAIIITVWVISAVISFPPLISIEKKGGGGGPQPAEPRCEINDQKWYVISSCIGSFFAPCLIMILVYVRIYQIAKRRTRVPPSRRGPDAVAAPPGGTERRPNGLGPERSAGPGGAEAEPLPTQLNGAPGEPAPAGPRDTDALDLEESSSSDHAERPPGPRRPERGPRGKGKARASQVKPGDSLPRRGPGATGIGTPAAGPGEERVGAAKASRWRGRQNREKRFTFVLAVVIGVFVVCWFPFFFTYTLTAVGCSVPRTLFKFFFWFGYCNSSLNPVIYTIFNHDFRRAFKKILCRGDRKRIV

[5] = biological target: α2C; conditions: read-out: α2C (nM), literature Ki; literature Ki values; cited from earlier work
[6] = biological target: α2A; conditions: read-out: α2A (nM), literature Ki; literature Ki values; cited from earlier work
[7] = biological target: α2A; conditions: read-out: α2A (nM), literature Kd; literature Kd values; cited from earlier work
[8] = biological target: α2C; conditions: read-out: α2C (nM), literature Kd; literature Kd values; cited from earlier work

Compound	Ki [1] [nM]	Subtype Selectivity (α2A/α2C) [1]	Kb [2] [nM]	Kb [3] [nM]	Ki [4] [nM]	Ki [5] [nM]	Ki [6] [nM]	Kd [7] [nM]	Ki ([1]; read-out: α2C (Ki), HEK293 membranes, 1 nM [3H]RX821002, Ki ± standard deviation) [nM]	Kd [8] [nM]	Ki ([4]; read-out: α2A (Ki), HEK293 membranes, 1 nM [3H]RX821002, Ki ± standard deviation) [nM]
COCc1scnc1N1CCN(C[C@H]2COc3ccccc3O2)CC1 [Compound 1, (S)-4-(4-((2,3-dihydrobenzo[b][1,4]dioxin-2-yl)methyl)piperazin-1-yl)-5-(methoxymethyl)thiazole]	0.25 ± 0.01	4.24	88	< 0.1	1.06 ± 0.52	–	–	–	–	–	–
COCc1c(C)nn(C)c1N1CCN(C[C@H]2COc3ccccc3O2)CC1 [Compound 2, (S)-1-((2,3-dihydrobenzo[b][1,4]dioxin-2-yl)methyl)-4-(4-(methoxymethyl)-1,3-dimethyl-1H-pyrazol-5-yl)-piperazine]	0.74 ± 0.1	16.6	306	1.62	12.3 ± 1.2	–	–	–	–	–	–
COc1ccccc1C1=CC(=O)N([C@H]2CCCN(C[C@H]3COc4ccccc4O3)C2)C1 [Compound 3, 1-((S)-1-(((S)-2,3-dihydrobenzo[b][1,4]dioxin-2-yl)methyl)piperidin-3-yl)-4-(2-methoxyphenyl)-1,5-dihydro-2H-pyrrol-2-one]	–	751,000	> 449	< 0.001	458 ± 26	–	–	–	–	–	–
COc1cccc(-n2nc(C)cc2N2CCN(C[C@H]3COc4ccccc4O3)CC2)n1 [Compound 4, (S)-1-((2,3-dihydrobenzo[b][1,4]dioxin-2-yl)methyl)-4-(1-(6-methoxypyridin-2-yl)-3-methyl-1H-pyrazol-5-yl)piperazine]	0.4 ± 0.07	6.93	82	0.29	2.77 ± 0.58	–	–	–	–	–	–
COCc1cccnc1N1CCN(C[C@H]2COc3ccccc3O2)CC1 [ORM-13070, (S)-1-((2,3-dihydrobenzo[b][1,4]dioxin-2-yl)methyl)-4-(3-(methoxymethyl)pyridin-2-yl)piperazine, reference compound]	0.25 ± 0.09	11.2	–	–	2.8 ± 0.2	3.8	109	–	–	–	–
CCS(=O)(=O)N1CCC[C@@H]2CN3CCc4cc(OC)ccc4[C@@H]3C[C@@H]21 [RS79948, reference compound]	–	0.55	–	–	–	–	–	0.6	0.29 ± 0.08	0.77	0.16 ± 0.12
